Experimental data from article PMC10628242, “Enzymatic β-elimination in natural product O- and C-glycoside deglycosylation” (Nature Communications, 2023).

Target: T1, PuCGE (human intestinal bacterium PUE, UniProt A0A3Q9WUX0+A0A3Q9WXL1, A0A3Q9WUX0:Y39F)
T1 construct: gene dgpC; heterodimer alpha (39,205 Da) + beta (18,313 Da), co-expressed from pET-Duet-1 in E. coli; N-terminal Strep-tag II; Mn2+ enzyme
T1 sequence (A0A3Q9WXL1 1-324): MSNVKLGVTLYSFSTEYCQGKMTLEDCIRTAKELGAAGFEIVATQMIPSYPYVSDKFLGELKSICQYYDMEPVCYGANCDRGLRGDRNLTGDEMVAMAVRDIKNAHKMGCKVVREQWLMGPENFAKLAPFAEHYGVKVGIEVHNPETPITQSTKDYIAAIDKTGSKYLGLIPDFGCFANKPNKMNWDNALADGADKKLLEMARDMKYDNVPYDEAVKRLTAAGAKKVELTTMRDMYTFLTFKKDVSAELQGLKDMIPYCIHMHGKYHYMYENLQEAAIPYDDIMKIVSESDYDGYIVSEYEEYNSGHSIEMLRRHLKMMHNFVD
T1 sequence (A0A3Q9WUX0 1-142 Y39F): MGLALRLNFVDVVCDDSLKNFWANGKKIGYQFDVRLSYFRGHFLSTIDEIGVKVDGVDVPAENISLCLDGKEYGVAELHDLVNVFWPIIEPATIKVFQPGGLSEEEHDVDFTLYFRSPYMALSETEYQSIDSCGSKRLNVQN
Assay: HPLC of aglycone release
Type: biochemical
Details: 2.0 mM substrate; potassium phosphate pH 6.0, 37 °C; text puts Tyr39 in beta, plasmid name puts Y39F on alpha

SMILES: O=C(CCc1ccc(O)cc1)c1c(O)cc(O)cc1O[C@@H]1O[C@H](CO)[C@@H](O)C(=O)[C@H]1O [3-keto-phlorizin, 3,5-dihydroxy-2-[3-(4-hydroxyphenyl)-1-oxopropyl]phenyl β-D-ribo-hexopyranosid-3-ulose]
- HPLC of aglycone release: The mutated PuCGE exhibits only a minor loss of 3-keto-phlorizin activity
